In article PMC6838013, “Insight Into Mosquito GnRH-Related Neuropeptide Receptor Specificity Revealed Through Analysis of Naturally Occurring and Synthetic Analogs of This Neuropeptide Family” (Frontiers in Endocrinology, 2019):
“And” between values parts separate entries of the source, which are not always exact repeats. Equal entries are not always repeated. Non-standard residues stand in square brackets, D forms with d. Residues, ends and D or L forms follow the SMILES beside them. pGlu = O=C1CC[C@@H](C(=O)O)N1

Key:
[1] = biological target: A. aegypti AKHR-IA receptor (AKHR-IA) (Aedes aegypti, UniProt A0A2P1A8S4); assay: Calcium bioluminescence (aequorin) reporter assay of heterologously expressed AKHR-IA; assay type: cell-based; settings: for EC50: CHO-K1 cells stably expressing aequorin, transiently transfected with AKHR-IA (pcDNA3.1+), luminescence 20 s, 3 to 4 independent biological replicates, ND = no determined EC50 due to minimal or no detectable activity up to 10 μM; for Fold-reduction in activity relative to Aedae-AKH: AKHR-IA in CHO-K1 aequorin cells, relative to native Aedae-AKH
Experimental: For each construct, an overnight liquid culture of clonal recombinant bacteria containing the appropriate plasmid construct was grown in antibiotic-containing LB media and used to isolate midiprep DNA using the PureLink Midiprep kit (Life Technologies, Burlington, ON). Midiprep samples were then quantified and sent for sequencing as described previously ([26], [27]).
(§1) Functional activation of the AedaeACPR and AedaeAKHR-IA receptors was carried out following a previously described mammalian cell culture system involving a Chinese hamster ovary (CHO)-K1 cell line stably expressing aequorin ([43]). Cells were grown in DMEM:F12 media containing 10% heat-inactivated fetal bovine serum (Wisent, St. Bruno, QC), 200 μg/mL Geneticin, 1x antimycotic-antibiotic to approximately 90% confluency, and were transiently transfected using either Lipofectamine LTX with Plus Reagent or Lipofectamine 3000 transfection systems (Invitrogen, Burlington, ON) following manufacturer recommended DNA to transfection reagent ratios. Cells were detached from the culture flasks at 48 h post-transfection using 5 mM EDTA in Dulbecco's PBS. Cells were then prepared for the receptor functional assay following a procedure described previously ([27]). Stocks of peptide analogs of ACP and AKH were used for preparation of serial dilutions all of which were prepared in assay media (0.1% BSA in DMEM:F12) and loaded in quadruplicates into 96-well white luminescence plates (Greiner Bio-One, Germany). Cells were loaded with an automatic injector into each well of the plate containing different peptide analogs at various concentrations as well as negative control (assay media alone) and positive control wells (50 μM ATP). Immediately after injection of the cells, luminescence was measured for 20 s using a Synergy 2 Multi-Mode Microplate Reader (BioTek, Winooski, VT, USA). Calculations, including determination of EC50 values, were conducted in GraphPad Prism 7.02 (GraphPad Software, San Diego, USA) from dose-response curves from 3 to 4 independent biological replicates.

[2] = tested on: A. aegypti ACP receptor (AedaeACPR); assay: Calcium bioluminescence (aequorin) reporter assay of heterologously expressed ACPR; assay type: cell-based, Aedes aegypti
Source text: Therefore, to improve the bioluminescent signal linked to calcium mobilization following receptor activation, which was required in order to provide greater signal to noise ratio when testing ACP analogs with substitutions leading to intermediate levels of activation of the ACPR, we created a new mammalian expression construct using the dual promoter vector, pBudCE4.1. Specifically, we utilized a cloning strategy as reported previously ([41]) whereby the ACPR was inserted into the multiple cloning site (MCS) downstream of the CMV promoter in pBudCE4.1 using the sense primer SalI-KozakACPR, 5′-[…]-3′ and anti-sense primer XbaI-ACPR, 5′-[…]-3′, which directionally inserted the ACPR within the MCS downstream of the CMV promoter. Secondly, the murine homolog (Gα15) of the human promiscuous G protein, Gα16, which indiscriminately couples a wide variety of GPCRs to calcium signaling ([42]) was inserted into the MCS downstream of the EF1-α promoter in pBudCE4.1 using the sense primer NotI-Gα15, 5′-[…]-3′ and anti-sense primer BglII-Gα15, 5′-[…]-3′, which directionally inserted the murine Gα15 within the MCS downstream of the EF1-α promoter.
as §1

A. aegypti AKHR-IA receptor (AKHR-IA), sequence (A0A2P1A8S4 1-410): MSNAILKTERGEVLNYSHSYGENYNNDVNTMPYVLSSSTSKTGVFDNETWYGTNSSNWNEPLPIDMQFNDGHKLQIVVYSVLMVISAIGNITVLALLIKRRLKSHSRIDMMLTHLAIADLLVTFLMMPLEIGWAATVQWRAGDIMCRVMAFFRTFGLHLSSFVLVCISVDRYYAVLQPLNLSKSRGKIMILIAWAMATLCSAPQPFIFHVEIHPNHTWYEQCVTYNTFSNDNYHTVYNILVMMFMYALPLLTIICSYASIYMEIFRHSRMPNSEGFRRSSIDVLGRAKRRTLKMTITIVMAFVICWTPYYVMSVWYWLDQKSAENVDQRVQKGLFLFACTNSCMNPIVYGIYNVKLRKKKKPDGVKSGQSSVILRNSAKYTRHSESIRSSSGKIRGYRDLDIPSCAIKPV

SMILES	EC50 [1]	Fold-reduction in activity relative to Aedae-AKH [1]	Activity on ACPR at the highest tested dose, in words ([2]; 10 μM, Figure 2, ANOVA and Tukey post-test)	Fold-reduction in activity relative to AedaeACP ([2]; ACPR in CHO-K1 aequorin cells, relative to native Aedae-ACP)	Improved efficacy on AKHR-IA relative to native mosquito AKH ([1]; relative to Aedae-AKH)
CC(C)[C@H](NC(=O)[C@@H]1CCC(=O)N1)C(=O)N[C@@H](CC(N)=O)C(=O)N[C@@H](Cc1ccccc1)C(=O)N[C@@H](CO)C(=O)N[C@H](C(=O)NCC(=O)N[C@@H](Cc1c[nH]c2ccccc12)C(N)=O)[C@@H](C)O [Grybi-AKH] ([pGlu]VNFSTGW-NH2)	2230 nM				
CC(C)C[C@H](NC(=O)[C@@H]1CCC(=O)N1)C(=O)N[C@H](C(=O)N[C@@H](Cc1ccccc1)C(=O)N[C@H](C(=O)N[C@@H](CO)C(=O)N[C@@H](CO)C(=O)N[C@@H](Cc1c[nH]c2ccccc12)C(N)=O)[C@@H](C)O)[C@@H](C)O [Hipes-AKH-I] ([pGlu]LTFTSSW-NH2)	16.5 nM	7.6 fold			
CC(C)C[C@H](NC(=O)[C@@H]1CCC(=O)N1)C(=O)N[C@H](C(=O)N[C@@H](Cc1ccccc1)C(=O)N[C@H](C(=O)N1CCC[C@H]1C(=O)NCC(=O)N[C@@H](Cc1c[nH]c2ccccc12)C(=O)NCC(=O)N[C@@H](CCC(N)=O)C(N)=O)[C@@H](C)O)[C@@H](C)O [Bommo-AKH] ([pGlu]LTFTPGWGQ-NH2)	23.6 nM	11 fold and 10.9 fold	inactive	>1,000 fold	
CC(C)C[C@H](NC(=O)[C@@H]1CCC(=O)N1)C(=O)N[C@H](C(=O)N[C@@H](Cc1ccccc1)C(=O)N[C@H](C(=O)N1CCC[C@H]1C(=O)NCC(=O)N[C@@H](Cc1c[nH]c2ccccc12)C(N)=O)[C@@H](C)O)[C@@H](C)O [Tabat-AKH] ([pGlu]LTFTPGW-NH2)	1.52 nM	0.7 fold			~ 30% and 30%
CC(C)C[C@H](NC(=O)[C@@H]1CCC(=O)N1)C(=O)N[C@@H](CC(N)=O)C(=O)N[C@@H](Cc1ccccc1)C(=O)N[C@H](C(=O)N1CCC[C@H]1C(=O)N[C@@H](CC(N)=O)C(=O)N[C@@H](Cc1c[nH]c2ccccc12)C(N)=O)[C@@H](C)O [Pyrap-AKH] ([pGlu]LNFTPNW-NH2)	727 nM	337 fold and 336.7 fold			
